{"source": "patent US20210113501A1", "about": "“METHOD OF ADMINISTERING BETA-HYDROXY-BETA-METHYLBUTYRATE (HMB)” (Metabolic Technologies, Inc., priority 2009, published 2021)", "type_in_all_cases": "in vivo, human", "key": {"[1]": {"assay": "Example 3: plasma HMB with probiotic supplementation", "settings": "0.8 g HMB-FA vs 1.0 g CaHMB; before and after 14 days of probiotic", "procedure": "A study was conducted to examine the bioavailability of HMB-acid and CaHMB when also administering a probiotic. Six volunteers were tested before and after two weeks of probiotic supplementation. Between trials, each volunteer took one dose of probiotics (BC^30) every morning for 14 days. At each trial, baseline plasma HMB levels were measured, then gave each volunteer one serving of HMB (1.0 g of CaHMB or 0.8 g of HMB-FA). Plasma HMB levels were measured at 2, 5, 10, 15, 25, 35, 45, 60, 90, 120, 150, and 180 min, as well as at 6, 12, and 24 hours."}, "[2]": {"assay": "12-week periodized resistance-training study of HMB-FA: strength and power", "source_text": "The current study was a randomized, double-blind, placebo- and diet-controlled experiment consisting of a 12-week-periodized resistance-training program. The training protocol was divided into three phases and consisted of a non-linear-periodized resistance-training program for the first 8 weeks, followed by a 2-week overreaching cycle, and finally a 2-week taper of the training volume. Muscle mass, body composition, strength, power, resting plasma testosterone, cortisol, and creatine kinase (CK) levels were examined collectively at the end of weeks 0, 4, 8, and 12 to assess the chronic effects of HMB; these measures were also assessed at the end of weeks 9 and 10, corresponding to the mid- and endpoints of the phase 2 overreaching cycle.\nTwenty-four resistance-trained males were tested and included in the study. Subjects were organized into quartile blocks based on their LBM and strength. Following this, each quartile was randomized to one of the treatment groups using computer-generated random numbers. After treatment assignment, the groups were assessed to confirm there were no differences between groups. Of those randomized to the treatments, three subjects dropped from the placebo group, two because of injury and one because of the time commitment, while one dropped from the HMB-FA group due to injury. All drop outs occurred during the first 4 weeks of the study. The remaining 20 subjects (21.6±0.5 years of age) consisting of nine placebo (87.1±4.8 kg; 180.9 cm) and 11 supplemented (83.1±2.8 kg; 179.0±2.1) males with an average squat, bench press, and deadlift of 1.7±0.04, 1.3±0.04, and 2.0±0.05 times their bodyweight, respectively, completed the study. There were no significant differences for age, body weight, height, or BMI between the treatment groups at the start of the study\nStrength was assessed via a one-repetition maximum (1-RM) testing of the back squat, bench press, and deadlift. The intraclass correlation coefficient (ICC) for the test-retest of strength in the squat, bench press, and deadlift ranged from r=0.956 to 0.982. Body composition [LBM, fat mass (FM), and total mass] was determined on a Lunar Prodigy dual X-ray absorptiometry (DXA) apparatus (software version, enCORE 2008, Madison, Wis., USA). Tests for the DXA were performed at the same time of day in a fasted state and the ICC was r=0.981. Skeletal muscle hypertrophy was assessed via changes in ultrasonography (GE Logiq e 2008, Wauwatosa, Wis., USA) determined combined muscle thickness of the vastus lateralis (VL) and vastus intermedius (VI) muscles. The ICC for the test-retest of muscle thickness measurements was r=0.975.\nPeak power (PP) was assessed during maximal cycling (modified Wingate test) and jumping movements. During the cycling test, the volunteer was instructed to cycle against a predetermined resistance (7.5% of body weight) as fast as possible for 10 s on a cycle ergometer (Monark model 894e, Vansbro, Sweden). Wingate PP was recorded using Monark anaerobic test software (Version 1.0, Monark, Vansbro, Sweden). From completion of Wingate tests performed over several days, the ICC for Wingate PP was 0.966.\nMeasurements of PP for the vertical jump were also taken on a multicomponent AMTI force platform (Advanced Mechanical Technology, Watertown, Mass. USA) which interfaced with a personal computer at a sampling rate of 1,000 Hz). Data acquisition software (LabVIEW, version 7.1; National Instruments Corporation, Austin, Tex., USA) was used to calculate vertical jump PP. The ICC for VJ PP was 0.971.\nPrior to the study, participants were randomly assigned to receive either 3 g per day of HMB-FA or a placebo divided equally into three servings. Each serving was formulated with 1 g of HMB-FA. The first serving was given 30 min prior to exercise and the remaining two servings given with the mid-day and evening meals. On the non-training days, participants were instructed to consume one serving with each of three separate meals throughout the day. […]"}, "[3]": {"assay": "Comparison of the CaHMB and HMB-acid strength studies", "settings": "comparison of two separate studies", "procedure": "A study was conducted to examine the effects of CaHMB on strength. A second study was conducted to examine the effects of HMB-acid on strength. The results of these studies were then compared to determine the improved efficacy of HMB-acid over CaHMB on increasing strength gains.\nThirty-two male volunteers 19-22 yr of age were selected for the study. Body weight averaged 99.3±3.4 kg with a range of 72-136 kg and height was 185±1.5 cm with a range of 170-198 cm. Almost all subjects were engaged in some form of exercise program before the study.\nBody composition was measured with TOBEC except that all subjects were measured after an overnight fast. Measurements were made on the Friday morning before the start of the experiment and each Friday thereafter. Strength measurements were made the week before the study and consisted of three standard strength measurements: the bench press, the squat, and the hang clean. Treatments and exercise regimens were started on Monday. The exercise regimen consisted of weight training 6 day s/wk, which included work on all major muscle groups, and lasted from 2 to 3 h/day. Aerobic training was also included in the exercise workout at least three times per week. […]\nDifferences between the two treatment groups were determined with at-test. […] Trends were determined for 0.05<P<0.11, and differences were considered not significant for P>0.11. […]"}, "[4]": {"settings": "after 12 weeks of training, 3 g per day"}}}
{"smiles": "CC(C)(O)CC(=O)O", "note": "[HMB-acid, 3-hydroxy-3-methylbutyric acid]", "values": [{"measurement": "time to peak plasma HMB, retention and bioavailability versus CaHMB", "setting": "[1]", "value": "faster time to peak plasma levels, greater retention of HMB, and improved bioavailability"}, {"measurement": "increase in vertical jump power", "setting": "[2]; after 12 weeks", "value": 19, "unit": "%"}, {"measurement": "strength increase, bench press", "setting": "[2]; [4]", "value": 12, "unit": "%"}, {"measurement": "strength increase, deadlift", "setting": "[2]; [4]", "value": 16, "unit": "%"}, {"measurement": "strength increase, squat", "setting": "[2]; [4]", "value": 25, "unit": "%"}, {"measurement": "strength increase, total strength", "setting": "[2]; [4]", "value": 18, "unit": "%"}, {"measurement": "increase in Wingate peak power", "setting": "[2]; over the 12-week study", "value": 18, "unit": "%"}, {"measurement": "total strength increase", "setting": "[2]; over the 12-week study, 3 g per day", "value": "77.1 ± 18.4", "unit": "kg"}, {"measurement": "net percent increase per week in squat and bench press, greater than with CaHMB", "setting": "[3]", "value": "~80", "unit": "%"}]}
